# Marks after values point to notes of the source that are not given here.
# Legend:
# [1] = test system: human peripheral blood monocytes; experiment: Monocyte chemotaxis assay (48-well microchemotaxis chamber, incl. checkerboard analysis); assay type: cell-based; settings: for Migrated monocytes (checkerboard analysis): monocytes 1 × 10^6/ml, Mean ± SD of triplicate wells
# Description: A. The migration of monocytes (1×10^6 cells/ml) was assessed by chemotaxis assay using 5-μm uncoated membranes. Spontaneous cell migration (without LL-37) was 30-50 cells/HPF. The average C. I. (Mean ±SD) of triplicate wells is shown. *p<0.05 when compared with chemotaxis medium alone (open bar). […]
# (§1) Human peripheral blood mononuclear cells (PBMC) were isolated from leukopacks (Courtesy of the Transfusion Medicine Department, NIH Clinic Center, Bethesda, MD) by routine Ficoll-Hypaque density gradient centrifugation. Monocytes were purified from human PBMC with the use of MACS CD14 monocyte isolation kit (Miltenyi Biotech Inc., Auburn, CA) according to the manufacturer's recommendation (12). Neutrophils were purified from the same leukopacks by 3% dextran sedimentation. T cells were purified from PBMC by the use of Human CD4 T Cell Enrichment Columns (R & D Systems, Minneapolis, MN) (12). The purity of neutrophils, monocytes, and T cells by FACScan analysis was more than 95%. Rat basophilic leukemia cells stably transfected with epitope-tagged formyl peptide receptor (ETFR cells) were generously provided by Drs. H. Ali and R. Snyderman (Duke University, Durham, NC), and maintained in the presence of 0.8 mg/ml of geneticin in DMEM supplemented with 10% FBS. Human embryonic kidney cells 293 stably transfected with FPRL1 (designated FPRL1/293 cells thereafter) were a gift of Drs. P. M. Murphy and J. L. Gao (NIAID, NIH, Bethesda, Md) and were maintained in the presence of 2 mg/ml of geneticin in DMEM supplemented with 10% FBS.
# (§2) Migration of neutrophils, monocytes, T cells, and HEK293 or transfectant cells in response to chemotactic factors was assessed using a 48-well microchemotaxis chamber technique as previously described (17, 18). Chemotactic factors diluted in chemotaxis medium (CM, RPMI 1640 containing 1% BSA) were placed in the wells of the lower compartment of the chamber (Neuro Probe, Cabin John, […]), and cells suspended in CM were added to the upper compartment. The lower and upper compartments were separated by a polycarbonate membrane (Osmonics, Livermore, Calf.). After incubation at 37_C in humidified air with 5% CO2 for a period of time (60 min for neutrophils, 90 min for monocytes, 180 min for T cells, and 300 min for HEK293, ETFR, and FPRL1/293 cells), the membranes were removed, scraped, stained, and counted. The results are presented as number of cells per high power field (No./HPF) or as chemotactic index (C.I.).
# [2] = test system: human peripheral blood monocytes; experiment: Ca2+ mobilization assay in monocytes (Fura-2); assay type: cell-based; design: Ca2+ flux in freshly isolated monocytes at single concentration: dose or concentration left out as unconfirmed
# Description: as §1
# (§3) Monocytes or FPRL1/293 cells (10^7 cells/ml in RPMI 1640 containing 10% FBS) were loaded by incubating with 5 μM Fura-2 (Molecular Probe) at 24_C for 30 minutes in the dark. Subsequently, the loaded cells were washed with and resuspended (10^6 cells/ml) in saline buffer (138 mM NaCl, 6 mM KC1, 1 mM CaCl2, 10 mM HEPES, 5 mM glucose, and 1% BSA, pH 7.4). Each 2 ml of loaded cells suspension was then transferred into a quartz cuvette, which was placed in a luminescence spectrometer LS50 B (Perkin-Elmer Limited, Beaconsfield, U.K). Ca^2+mobilization of the cells in response to chemotactic factors was measured by recording the ratio of fluorescence emitted at 510 nm after sequential excitation at 340 nm and 380 nm.
# [3] = molecular target: T1, FPRL1 (HEK293 cells stably transfected with FPRL1) (Homo sapiens, UniProt P25090); experiment: Chemotaxis of FPRL1/293 cells; assay type: cell-based; settings: FIG. 3A
# T1 construct: expressed in transfected cells; gift of P. M. Murphy and J. L. Gao (NIAID, NIH)
# T1 sequence (P25090 1-351): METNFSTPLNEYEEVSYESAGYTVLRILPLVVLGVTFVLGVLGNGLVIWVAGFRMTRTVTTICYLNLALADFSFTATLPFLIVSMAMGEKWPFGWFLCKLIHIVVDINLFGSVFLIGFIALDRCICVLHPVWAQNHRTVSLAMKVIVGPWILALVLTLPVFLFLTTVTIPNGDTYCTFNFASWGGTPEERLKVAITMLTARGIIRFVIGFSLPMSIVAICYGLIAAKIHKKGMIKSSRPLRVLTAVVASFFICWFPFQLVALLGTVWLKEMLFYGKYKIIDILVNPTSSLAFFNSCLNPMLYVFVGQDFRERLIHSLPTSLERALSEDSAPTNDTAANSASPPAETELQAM
# Description: (§4) A. Selective induction of FPRL1/293 cell chemotaxis by LL-37. The migration of parental HEK293 (open bars), FPRL1/293 (dotted bars), or ETFR (closed bars) cells was assessed by chemotaxis assay with the use of collagen-coated 10-μm membranes. Cells were used at a concentration of 1×10^6 cells/ml. The average C. I. (Mean±SD) of triplicate wells is shown. Spontaneous cell migration (without LL-37) was 10-20 cells/HPF. *p<0.05 when compared with chemotaxis medium alone.
# (§5) Human peripheral blood mononuclear cells (PBMC) were isolated from leukopacks (Courtesy of the Transfusion Medicine Department, NIH Clinic Center, Bethesda, MD) by routine Ficoll-Hypaque density gradient centrifugation. Monocytes were purified from human PBMC with the use of MACS CD14 monocyte isolation kit (Miltenyi Biotech Inc., Auburn, CA) according to the manufacturer's recommendation (12). […]
# (§6) Migration of neutrophils, monocytes, T cells, and HEK293 or transfectant cells in response to chemotactic factors was assessed using a 48-well microchemotaxis chamber technique as previously described (17, 18). […] After incubation at 37_C in humidified air with 5% CO2 for a period of time (60 min for neutrophils, 90 min for monocytes, 180 min for T cells, and 300 min for HEK293, ETFR, and FPRL1/293 cells), the membranes were removed, scraped, stained, and counted. […]
# parental HEK293 cells = experiment: Chemotaxis of parental HEK293 cells; assay type: cell-based, human; settings: FIG. 3A
# Description: as §4, §2
# [4] = molecular target: T2, formyl peptide receptor (ETFR cells) (Homo sapiens, UniProt P21462); experiment: Chemotaxis of ETFR cells; assay type: cell-based; settings: FIG. 3A
# T2 construct: expressed in transfected cells; provided by H. Ali and R. Snyderman (Duke University)
# T2 sequence (P21462 1-350): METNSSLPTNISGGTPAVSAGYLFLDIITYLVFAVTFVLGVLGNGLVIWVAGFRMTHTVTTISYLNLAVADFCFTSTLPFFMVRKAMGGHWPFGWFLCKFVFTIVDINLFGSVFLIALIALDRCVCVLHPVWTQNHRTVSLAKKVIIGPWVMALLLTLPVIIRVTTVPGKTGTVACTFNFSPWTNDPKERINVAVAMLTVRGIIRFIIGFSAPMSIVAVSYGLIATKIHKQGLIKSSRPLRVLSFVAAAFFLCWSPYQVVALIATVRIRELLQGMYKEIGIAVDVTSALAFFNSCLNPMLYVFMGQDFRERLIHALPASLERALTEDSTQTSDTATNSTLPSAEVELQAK
# Description: as §4, §5, §6
# FPRL1 (FPRL1/293 cells) = molecular target: T3, FPRL1 (FPRL1/293 cells) (Homo sapiens, UniProt P25090); experiment: Ca2+ mobilization assay in FPRL1/293 cells; assay type: cell-based; settings: FIG. 3B
# T3 construct: expressed in transfected cells; gift of P. M. Murphy and J. L. Gao (NIAID, NIH)
# T3 sequence (P25090 1-351): T1 sequence (P25090 1-351)
# Description: B. LL-37-induced Ca^2+ flux in FPRL1/293 cells. The arrow indicates the time point where LL-37 was applied to the cells.
# as §5, with “(12). Neutrophils were purified from the same leukopacks by 3% dextran sedimentation. T cells were purified from PBMC by the use of Human CD4 T Cell Enrichment Columns (R & D Systems, Minneapolis, MN) (12). The purity of neutrophils, monocytes, and T cells by FACScan analysis was more than 95%.” for “(12).”
# as §3, with “Subsequently, the loaded cells were washed with and resuspended (10^6 cells/ml) in saline buffer (138 mM NaCl, 6 mM KC1, 1 mM CaCl2, 10 mM HEPES, 5 mM glucose, and 1% BSA, pH 7.4).” left out
# [5] = molecular target: T2, formyl peptide receptor (ETFR cells); experiment: Ca2+ flux in ETFR cells; assay type: cell-based
# [6] = test system: human peripheral blood neutrophils; experiment: Neutrophil chemotaxis assay; assay type: cell-based
# Description: (§7) FIGS. 4A-B show the chemotaxis of human neutrophils (A) and CD4 T lymphocytes (B) in response to LL-37. The cell migration was assessed by chemotaxis assay with the use of uncoated (A) or fibronectin-coated (B) 5 μm membranes. The results are presented as the average C. I. (Mean±SD) of triplicate wells. *p<0.05 when compared with spontaneous cell migration (chemotactic medium alone). Neutrophils and CD4 T cells were used at a concentration of 1×10^6 cells/ml and 5×10^6 cells/ml, respectively. Spontaneous neutrophil and T cell migration (without LL-37) was 30-50 and 30-40 cells/HPF, respectively.
# (§8) Human peripheral blood mononuclear cells (PBMC) were isolated from leukopacks (Courtesy of the Transfusion Medicine Department, NIH Clinic Center, Bethesda, MD) by routine Ficoll-Hypaque density gradient centrifugation. […]
# as §6
# human CD4 T cells = experiment: CD4 T lymphocyte chemotaxis assay; assay type: cell-based
# Description: as §7, §8, §6
# immature dendritic cells [7] = experiment: Chemotaxis of monocyte-derived immature dendritic cells; assay type: cell-based, human; settings: monocytes differentiated into immature dendritic cells
# immature dendritic cells [8] = experiment: Ca2+ mobilization in monocyte-derived immature dendritic cells; assay type: cell-based, human; settings: monocytes differentiated into immature dendritic cells
# CCR2 = molecular target: T4, CCR2 (Homo sapiens, UniProt P41597); experiment: Examination of HEK293 cells stably transfected to express CCR2; assay type: cell-based
# T4 construct: expressed in transfected cells
# Description: To mediate its chemotactic effect on monocytes, LL-37 must use a chemotactic receptor expressed by monocytes, but not by monocyte-derived immature dendritic cells.
# [9] = 10% human AB serum; LL-37 at 10^−5 M; cited from earlier work
# mammalian cells = settings: cited from earlier work
# T4 sequence (P41597 whole entry): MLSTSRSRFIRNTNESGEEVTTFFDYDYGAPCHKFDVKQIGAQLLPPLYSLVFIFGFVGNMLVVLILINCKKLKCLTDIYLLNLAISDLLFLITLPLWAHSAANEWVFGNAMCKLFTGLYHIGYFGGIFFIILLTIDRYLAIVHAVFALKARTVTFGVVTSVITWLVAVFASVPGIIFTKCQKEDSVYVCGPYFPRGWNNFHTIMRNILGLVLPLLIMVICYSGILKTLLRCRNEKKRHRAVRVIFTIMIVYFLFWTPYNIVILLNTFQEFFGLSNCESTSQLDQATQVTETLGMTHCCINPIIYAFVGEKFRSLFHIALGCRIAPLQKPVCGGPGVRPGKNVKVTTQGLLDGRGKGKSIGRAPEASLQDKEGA
substance,measurement,setting,value
"LL-37: 37-residue mature antimicrobial peptide cleaved from hCAP18, human cathelicidin; synthesized by solid-phase Fmoc chemistry",LL-37-induced chemotaxis of monocytes in presence of serum,"[1]; 10% human AB serum, FIG. 2B",not significantly inhibited
same,Migrated monocytes (checkerboard analysis),"[1]; LL-37 lower wells 0 μM, upper wells 1 μM",45 ± 6 No./HPF
same,Migrated monocytes (checkerboard analysis),"[1]; LL-37 lower wells 0 μM, upper wells 10 μM",44 ± 7 No./HPF
same,Migrated monocytes (checkerboard analysis),"[1]; LL-37 lower wells 1 μM, upper wells 0 μM",135 ± 15** No./HPF
same,Migrated monocytes (checkerboard analysis),"[1]; LL-37 lower wells 1 μM, upper wells 1 μM",50 ± 8 No./HPF
same,Migrated monocytes (checkerboard analysis),"[1]; LL-37 lower wells 1 μM, upper wells 10 μM",40 ± 6 No./HPF
same,Migrated monocytes (checkerboard analysis),"[1]; LL-37 lower wells 10 μM, upper wells 0 μM",495 ± 29** No./HPF
same,Migrated monocytes (checkerboard analysis),"[1]; LL-37 lower wells 10 μM, upper wells 1 μM",265 ± 5** No./HPF
same,Migrated monocytes (checkerboard analysis),"[1]; LL-37 lower wells 10 μM, upper wells 10 μM",95 ± 2* No./HPF
same,Optimal concentration for induction of monocyte migration,"[1]; dose-dependent, FIG. 1A",10^−5 M
same,Induction of Ca2+ flux in monocytes,[2]; FIG. 1B,dose-dependently induced Ca^2+ flux
same,Desensitization of Su peptide-induced Ca2+ flux in monocytes,"[2]; Su peptide after LL-37 at 10^−5 M, FIG. 3C b",almost completely desensitized
same,Ca2+ flux in freshly isolated monocytes at single concentration,"[2]; peptide, FIG. 3C a and c",induced Ca^2+ flux to a similar extent
same,Migration of FPRL1/293 cells,[3],migrated in response to LL-37 in a dose-dependent manner
same,Migration of parental HEK293 cells,parental HEK293 cells,did not respond
same,Migration of ETFR cells,[4],did not respond
same,Ca2+ flux in FPRL1/293 cells,FPRL1 (FPRL1/293 cells),induced Ca^2+flux in a dose-dependent manner
same,Ca2+ flux in ETFR cells,[5],not in ETFR cells
same,Optimal concentration to chemoattract human leukocytes (neutrophils),[6]; FIG. 4,10^−5 M
same,Migration of purified neutrophils,[6]; FIG. 4A,induced dose-dependent migration
same,Optimal concentration to chemoattract human leukocytes (CD4 T cells),human CD4 T cells; FIG. 4,10^−5 M
same,Migration of CD4 T cells,human CD4 T cells; FIG. 4B,induced dose-dependent migration
same,Chemotaxis response of immature dendritic cells,immature dendritic cells [7],could not respond
same,Ca2+ mobilization response of immature dendritic cells,immature dendritic cells [8],could not respond
same,CCR2 as a receptor (CCR2-transfected HEK293 cells),CCR2,CCR2 was not a receptor
same,Antimicrobial activity in presence of serum,[9],completely block
same,Concentration damaging mammalian cells (cytocidal effect),mammalian cells,above 5×10^−5 M

# — patent publication US20040013679A1, “LL-37 is an immunostimulant” (priority 2000, published 2004)
